Ki and melting point data for five molecules are collected here from patent US20080188478A1, “Compounds Useful In Therapy” (Pfizer Inc., priority 2005, published 2008).

The target of data set [1] is human V1A receptor (Homo sapiens, UniProt P37288). The data set is described as follows: V1A filter binding assay ([3H]-AVP binding to CHO-hV1A membranes). The conditions noted are these: screen 1.0, Ki by Cheng-Prusoff equation. On the procedure:
1.0 V1A Filter Binding Assay
Receptor binding assays were performed on cellular membranes prepared from CHO cells stably expressing the human V1A receptor, (CHO-hV1A). The CHO-hV1A cell line was kindly provided under a licensing agreement by Marc Thibonnier, Dept. of Medicine, Case Western Reserve University School of Medicine, Cleveland, Ohio. CHO-hV1A cells were routinely maintained at 37° C. in humidified atmosphere with 5% CO2 in DMEM/Hams F12 nutrient mix supplemented with 10% fetal bovine serum, 2 mM L-glutamine, 15 mM HEPES and 400 μg/ml G418. For bulk production of cell pellets, adherent CHO-hV1A cells were grown to confluency of 90-100% in 850 cm^2 roller bottles containing a medium of DMEM/Hams F12 Nutrient Mix supplemented with 10% fetal bovine serum, 2 mM L-glutamine and 15 mM HEPES. Confluent CHO-hV1A cells were washed with phosphate-buffered saline (PBS), harvested into ice cold PBS and centrifuged at 1,000 rpm. Cell pellets were stored at −80° C. until use. When required, the cell pellets were thawed on ice and homogenised in membrane preparation buffer consisting of 50 mM Tris-HCl, pH 7.4, 5 mM MgCl2 and supplemented with a protease inhibitor cocktail, (Roche). The cell homogenate was centrifuged at 1000 rpm, 10 min, 4° C. and the supernatant was removed and stored on ice. The remaining pellet was homogenised and centrifuged as before. The supernatants were pooled and centrifuged at 25,000×g for 30 min at 4° C. The pellet was resuspended in freezing buffer consisting of 50 mM Tris-HCl, pH 7.4, 5 mM MgCl2 and 20% glycerol and stored in small aliquots at −80° C. until use. Protein concentration was determined using Bradford reagent and BSA as a standard.
Protein linearity, followed by saturation binding studies were performed on each new batch of membrane. A membrane concentration was chosen that gave specific binding on the linear portion of the curve. Saturation binding studies were then performed using various concentrations of [^3H]-arginine vasopressin, [^3H]-AVP (0.05 nM-100 nM) and the Kd and Bmax were determined. […] The plates were sealed and counted on a TopCount Microplate Scintillation Counter (Packard Instruments). Non-specific binding (NSB) was determined using 1 μM unlabelled d(CH2)5Tyr(Me)AVP ([β-mercapto-β,β-cyclopentamethylenepropionyl, 0-Me-Tyr^2, Arg^8]-vasopressin) (βMCPVP), (Sigma). The radioligand binding data was analysed using a four parameter logistic equation with the min forced to 0%. […] Specific binding was calculated by subtracting the mean NSB cpm from the mean Total cpm. For test compounds the amount of ligand bound to the receptor was expressed as % bound=(sample cpm−mean NSB cpm)/specific binding cpm×100. […]

Chain of human V1A receptor (P37288 whole entry): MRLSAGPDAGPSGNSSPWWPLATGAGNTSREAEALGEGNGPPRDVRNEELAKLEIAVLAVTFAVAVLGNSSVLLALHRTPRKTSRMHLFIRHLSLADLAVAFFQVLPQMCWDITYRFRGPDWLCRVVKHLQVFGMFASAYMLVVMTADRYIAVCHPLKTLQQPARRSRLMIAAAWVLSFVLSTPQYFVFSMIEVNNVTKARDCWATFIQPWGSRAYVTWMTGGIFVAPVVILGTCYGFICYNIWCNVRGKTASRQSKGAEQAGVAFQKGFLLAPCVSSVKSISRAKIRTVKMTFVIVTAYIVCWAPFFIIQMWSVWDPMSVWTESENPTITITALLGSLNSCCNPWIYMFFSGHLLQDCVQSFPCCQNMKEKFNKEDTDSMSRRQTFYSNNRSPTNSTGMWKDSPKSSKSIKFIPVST

In turn, `O=c1oc2cccnc2n1C1CCN(c2nnc(Cn3nccn3)n2-c2ccc(Cl)cc2)CC1` [Example 7, 3-{1-[4-(4-chlorophenyl)-5-(2H-1,2,3-triazol-2-ylmethyl)-4H-1,2,4-triazol-3-yl]piperidin-4-yl}[1,3]oxazolo[4,5-b]pyridin-2(3H)-one] registered a Ki in data set [1] of 1.1 nM.
`Cc1nnc(N2CCC(N3c4ccccc4N(C)S3(=O)=O)CC2)n1-c1ccc(Cl)cc1` [Example 18, 1-{1-[4-(4-Chlorophenyl)-5-methyl-4H-1,2,4-triazol-3-yl]piperidin-4-yl}-3-methyl-1,3-dihydro-2,1,3-benzothiadiazole 2,2-dioxide]: the melting point was 210 to 212 °C.
For `Cc1nnc(N2CCN(c3nsc4ccccc34)CC2)n1-c1ccc(Cl)cc1` [Example 20, 3-{4-[4-(4-Chlorophenyl)-5-methyl-4H-1,2,4-triazol-3-yl]piperazin-1-yl}-1,2-benzisothiazole], in data set [1], affinity was put at a Ki of 0.49 nM.
`FC(F)(F)c1nnc(N2CCN(c3nsc4ccccc34)CC2)n1-c1ccc(Cl)cc1` [Example 22, 3-{4-[4-(4-Chlorophenyl)-5-(trifluoromethyl)-4H-1,2,4-triazol-3-yl]piperazin-1-yl}-1,2-benzisothiazole]: the affinity in data set [1] corresponds to a Ki of 0.79 nM.
In data set [1], `Cc1nnc(C2CCN(c3noc4cccnc34)CC2)n1-c1ccc(Cl)cc1` [Example 29, 3-{4-[4-(4-Chlorophenyl)-5-methyl-4H-1,2,4-triazol-3-yl]piperidin-1-yl}isoxazolo[4,5-b]pyridine] yielded an inhibition constant Ki of 1.04 nM.

What is called Ki is the dissociation constant of the complex between target and ligand, obtained from inhibition or displacement. For orientation: melting point means the temperature of the solid-liquid transition.
